Numbers after ± are expanded uncertainties.
Assay: refractive index (Na D-line) (dimensionless)
Conditions: 295.1 K; 101.33 kPa; Liquid; Standard Abbe refractometry

refractive index | Compound
1.3441 ± 0.0024 | CC#N [acetonitrile]
1.4175 ± 0.0024 | CCCCCCC(=O)O [heptanoic acid]
1.4322 ± 0.0024 | CCCCCCCCCO [nonan-1-ol]
1.333 ± 0.0024 | O [water]

From the NIST ThermoML archive (doi:10.1021/je800404f)
